Data published in PMC3261944, “The in Vitro Estrogenic Activities of Polyfluorinated Iodine Alkanes” (Environmental Health Perspectives, 2011).
“Also recorded” adds a separate entry of the source.

Experiments:
[1] = system: EGR3; assay: Expression of estrogen-responsive gene EGR3 (quantitative RT-PCR); type: cell-based, Human; details: MCF-7 cells, 48 hr, vs 0.1% ethanol; 50 μM PFBI, PFHxI, PFOI, PFBDI, PFOA, PFOC, PFOB, 1-iodohexane, 4:2 FTI, 6:2 FTI; 40 μM PFDI, PFDoI, PFODI, 8:2 FTI, 10:2 FTI; 20 μM PFHxDI; 100 pM E2
Experimental: (§1) RNA isolation and reverse transcription polymerase chain reaction (RT-PCR). MCF-7BUS cells were seeded in six-well plates at the density of 1.0 × 10^6 cells per well, starved in SF medium for 48 hr, and exposed to test compounds for 48 hr. First, cells were rinsed twice with cold phosphate-buffered saline, and total RNA was isolated using Trizol reagent (Invitrogen Inc., Carlsbad, CA, USA) following the manufacturer’s protocol. The 260 nm and 280 nm absorbance reading of total RNA was performed using a Nanodrop spectrophotometer (Thermo Scientific, Waltham, MA, USA). The concentration of RNA was quantified by the reading at 260 nm.
(§2) We used a two-step quantitative RT-PCR to quantify gene expression. Total RNA was converted to cDNA using M-MLV (Moloney murine leukemia virus) reverse transcriptase (Promega, Madison, WI, USA) with oligo dT(15), following the manufacturer’s instructions. The final cDNA solution was diluted five times with DNase/RNase-free water (Gibco). Quantitative PCR was performed with a Stratagene MX3005 thermal cycler (Stratagene, La Jolla, CA, USA). PCR reaction mixtures (25 μL) contained 12.5 μL GoTaq Green Master Mix (Promega), 2 μL diluted cDNA, and 0.2 μM sense/antisense primers. The thermal cycle was 5 min at 95°C, followed by 45 cycles of 15 sec at 95°C, 30 sec at 55°C, and 30 sec at 72°C. The primer sequences of early growth response protein 3 (EGR3) were derived from [Terasaka et al. (2004)]. We designed the primers of internal gene β-actin and trefoil factor 1 (TFF1; pS2) with Primer Premier 5 software (Premier Biosoft International, Palo Alto, CA, USA). The primer sequences were as follows: for β-actin (NM_001101), 5´-CACTCT[…]TCCTTCC-3´ (forward) and 5´-[…][…]-3´ (reverse); for EGR3 (NM_004430), 5´-CCATGATTC[…]-3´ (forward) and 5´-GTGGATCTGCTTGTCTTTGAATG-3´ (reverse); and for TFF1 (NM_003225), 5´-AGAAGCG […]-3´ (forward) and 5´-[…][…]-3´ (reverse). The quantification of target gene expression was based on a comparative cycle threshold (Ct) value. We normalized the expression level of each target gene to its reference gene β-actin. The fold change of the target genes was analyzed by the 2^−ΔΔCt method ([Livak and Schmittgen 2001]). We used melting curve analysis and agarose gel electrophoresis to verify the correct PCR products.

[2] = system: TFF1 (pS2); assay: Expression of estrogen-responsive gene TFF1 (quantitative RT-PCR); type: cell-based, Human; details: MCF-7 cells, 48 hr, vs 0.1% ethanol; 50 μM PFBI, PFHxI, PFOI, PFBDI, PFOA, PFOC, PFOB, 1-iodohexane, 4:2 FTI, 6:2 FTI; 40 μM PFDI, PFDoI, PFODI, 8:2 FTI, 10:2 FTI; 20 μM PFHxDI; 100 pM E2
Experimental: as §1, §2

[3] = system: MCF-7BUS cells; assay: E-screen assay (MCF-7BUS cell proliferation, WST-1); type: cell-based, Human; details: for E-screen Maximum induction (%): percentage of the maximum proliferation effect of tested compound to that of E2, 6 days exposure; for Proliferation / estrogenic effect in the E-screen assay (in words): within the tested concentration ranges
Experimental: (§3) Cell culture. Human MCF-7BUS breast adenocarcinoma cells and MVLN cells were cultured in 100-mm culture dishes in a humidified atmosphere of 5% CO2 at 37°C. Cells were maintained in Dulbecco’s modified Eagle’s medium (DMEM)/F-12 (Hyclone, Logan, UT, USA) containing 10% fetal bovine serum, 100 U/mL streptomycin-penicillin, 2 mM L-glutamine, and 1% insulin-transferrin-selenium supplement (all from Gibco, Grand Island, NY, USA).
E-screen assay. MCF-7BUS cells were kindly provided by A.M. Soto and C. Sonnenschein (Tufts University School of Medicine, Boston, MA, USA). In response to ERα agonists, the mitotic effect leads to the proliferation of MCF-7BUS cells. […] Cells were trypsinized and plated into the interior 60 wells of 96-well plates at the density of 3,000 cells/well. Before each experiment, cells were starved in steroid-free (SF) medium for 48 hr to minimize the basal hormonal activity during assays. SF medium consisted of phenol red–free DMEM/F-12 (Hyclone) supplemented with 5% dextran-charcoal-treated fetal bovine serum (Hyclone), 100 U/mL streptomycin-penicillin, and 2 mM L-glutamine. […] We used a WST-1 proliferation kit (Roche Diagnostics, Mannheim, Germany) to assess proliferation after 6 days of exposure according to the kit instructions. The WST-1 assay is based on the enzymatic cleavage of the tetrazolium salt WST-1 to formazan by cellular mitochondrial dehydrogenases present in viable cells. The absorbance of the WST-1 solution was detected by a microplate reader (Varioskan Flash, Thermo Fisher Scientific, Waltham, MA, USA) at 450 nm, with the reference wave length at 690 nm. The cell proliferation effect was calculated from the solvent control (0.1% ethanol)-corrected absorbance and expressed as the percentage of maximal absorbance of the positive control. Three replicates were used in each experiment.
(§4) The concentration–response analyses were performed with four-parameter logistic curve regression analysis according to the following formula:
(§5) y = minimum + (maximum – minimum) ÷ [1 + (x/EC50)^Hill slope], [1]
(§6) where y is the response value, x is the log concentration of the test compound, and EC50 is the concentration that induces half of the maximum proliferation effect or luciferase activity.
EC50 values were calculated from this nonlinear regression model. EC20 were calculated as […]

[4] = system: gap junction intercellular communication; design: method as in Hu et al. 2002; Upham et al. 1998; details: ref Hu et al. 2002; Upham et al. 1998; cited from earlier work
[5] = target: T1, ER (Homo sapiens, UniProt P03372); assay: MVLN assay (estrogen-responsive luciferase reporter transactivation); type: cell-based; details: for MVLN assay Maximum induction (%): percentage of the maximum induction (luciferase) of tested compound to that of E2, 2 days exposure; for Luciferase induction / estrogenic effect in the MVLN assay (in words): within the tested concentration ranges
T1 construct: This cell line was stably transfected with the luciferase reporter gene and estrogen-responsive element derived from the Xenopus vitellogenin A2 gene; endogenous in cells; host or cells: MVLN cells (provided by J.P. Giesy)
T1 sequence (P03372 1-595): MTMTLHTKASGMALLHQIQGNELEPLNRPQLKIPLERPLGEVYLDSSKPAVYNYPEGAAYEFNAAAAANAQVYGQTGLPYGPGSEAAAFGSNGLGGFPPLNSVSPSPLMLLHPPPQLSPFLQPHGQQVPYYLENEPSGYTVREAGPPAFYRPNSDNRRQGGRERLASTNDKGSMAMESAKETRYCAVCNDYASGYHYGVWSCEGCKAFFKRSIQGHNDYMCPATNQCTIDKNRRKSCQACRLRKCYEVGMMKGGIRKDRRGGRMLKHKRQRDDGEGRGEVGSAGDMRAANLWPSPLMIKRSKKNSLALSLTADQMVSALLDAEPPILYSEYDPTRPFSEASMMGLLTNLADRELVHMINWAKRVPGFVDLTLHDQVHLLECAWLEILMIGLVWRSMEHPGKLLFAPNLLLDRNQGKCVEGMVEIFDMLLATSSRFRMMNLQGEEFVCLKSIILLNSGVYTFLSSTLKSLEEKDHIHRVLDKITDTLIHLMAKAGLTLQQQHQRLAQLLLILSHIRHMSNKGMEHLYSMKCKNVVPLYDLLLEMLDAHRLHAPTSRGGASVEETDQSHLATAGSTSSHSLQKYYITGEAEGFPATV
Experimental: as §3
MVLN assay. The MVLN cell line was kindly provided by J.P. Giesy (Michigan State University, East Lansing, MI, USA). This cell line was stably transfected with the luciferase reporter gene and estrogen-responsive element derived from the Xenopus vitellogenin A2 gene. […] Cells were seeded in the interior 60 wells of a 96-well ViewPlate (Packard Instrument Company, Boston, MA, USA) at a density of 7 × 10^4 cells/well, starved in SF medium for 48 hr, and exposed to test compounds for 2 days. […] Luciferase activity was measured with the LucLite kit (Packard Instruments) according to the manufacturer’s protocol. We measured luminescence by microplate reader (Varioskan Flash) and integrated the luminescence signal for 10 sec. Total protein content was measured by the Bradford assay (Tiangen, Beijing, China) to normalize luminescent units. The results are given as relative luminescent unit per microgram protein. The maximal induction of positive control (corrected for solvent control, 0.1–0.2% ethanol) was set as 100%, and the responses of other chemicals were converted to a percentage of the maximum level. Three replicates were used in each experiment. The cytotoxicity of tested chemicals was examined by WST-1 kit in parallel and routinely observed under microscope to identify the exposure concentration range.
as §4, §5, §6
EC50 values were calculated from this nonlinear regression model. EC20 were calculated as
ECx = [x/(100 – x)]^(1/Hill slope) × EC50, [2]

[6] = system: vitellogenin; design: method as in Liu et al. (2007); details: primary cultured tilapia hepatocytes; ref Liu et al. (2007); cited from earlier work
[7] = system: vitellogenin; design: method as in Ishibashi et al. 2008; details: male medaka fish; ref Ishibashi et al. 2008; cited from earlier work

SMILES | EGR3 mRNA expression, fold up-regulation [1] | TFF1 mRNA expression, fold up-regulation [2] | E-screen Maximum induction (%) [3] | Proliferation / estrogenic effect in the E-screen assay (in words) [3] | Inhibition of gap junction intercellular communication [4] | MVLN assay Maximum induction (%) [5] | Luciferase induction / estrogenic effect in the MVLN assay (in words) [5] | Vitellogenin expression [6] | Vitellogenin induction [7]
FC(F)(F)C(F)(F)C(F)(F)C(F)(F)C(F)(F)C(F)(F)C(F)(F)C(F)(F)C(F)(F)C(F)(F)C(F)(F)C(F)(F)I [PFDoI, 1-iodoperfluorododecane] | did not affect the expression | did not affect the expression | NDd (The maximum relative proliferation effect was < 7%) | did not show proliferation effects |  |  |  |  | 
FC(F)(F)C(F)(F)C(F)(F)C(F)(F)C(F)(F)C(F)(F)C(F)(F)C(F)(F)C(F)(F)C(F)(F)I [PFDI, 1-iodoperfluorodecane] | did not affect the expression | did not affect the expression | NDd (The maximum relative proliferation effect was < 7%) | did not show proliferation effects |  |  |  |  | 
O=S(=O)(O)C(F)(F)C(F)(F)C(F)(F)C(F)(F)F [perfluorobutanesulfonate] |  |  |  |  | did not show effects |  |  |  | 
FC(F)C(F)(F)C(F)(F)C(F)(F)C(F)(F)C(F)(F)C(F)(F)C(F)(F)F [PFOC, 1H-perfluorooctane, reference compound] | did not affect the expression | did not affect the expression | NDd (The maximum relative proliferation effect was < 7%) | negative results |  | NDe (The maximum relative luciferase activity was < 5%) | negative results |  | 
O=S(=O)(O)C(F)(F)C(F)(F)C(F)(F)C(F)(F)C(F)(F)C(F)(F)C(F)(F)C(F)(F)F [PFOS, perfluorooctane sulfonate] |  |  |  |  | significantly inhibits |  |  | induced | did not
CCCCCCI [1-Iodohexane, reference compound] | did not affect the expression | did not affect the expression | NDd (The maximum relative proliferation effect was < 7%) | negative results |  | NDe (The maximum relative luciferase activity was < 5%) | negative results |  | 
FC(F)(F)C(F)(F)C(F)(F)C(F)(F)C(F)(F)C(F)(F)C(F)(F)C(F)(F)Br [PFOB, 1-bromoperfluorooctane, reference compound] | did not affect the expression | did not affect the expression | NDd (The maximum relative proliferation effect was < 7%) | negative results |  | NDe (The maximum relative luciferase activity was < 5%) | negative results |  | 
O=S(=O)(O)C(F)(F)C(F)(F)C(F)(F)C(F)(F)C(F)(F)C(F)(F)F [perfluorohexanesulfonate] |  |  |  |  | did not show effects |  |  |  | 
FC(F)(F)C(F)(F)C(F)(F)C(F)(F)I [PFBI, 1-iodoperfluorobutane] | did not affect the expression | did not affect the expression | NDd (The maximum relative proliferation effect was < 7%) | did not show proliferation effects |  |  |  |  | 
O=C(O)C(F)(F)C(F)(F)C(F)(F)C(F)(F)C(F)(F)C(F)(F)C(F)(F)F [PFOA, perfluorooctanoic acid, reference compound] |  |  | NDd (The maximum relative proliferation effect was < 7%) | negative results; also recorded: did not show proliferation effects |  |  |  | induced | did not
